Data on one compound can be found in PMC7811808, “Design, synthesis, and biological evaluation of novel 5,6,7-trimethoxy quinolines as potential anticancer agents and tubulin polymerization inhibitors” (Iranian Journal of Basic Medical Sciences, 2020).

The structures appear in SMILES notation.

One assay has as its system A2780/RCIS. The assay is described as follows: MTT antiproliferative activity assay. The format is cell-based. As to conditions: Homo sapiens, A2780; MTT, 48 hr; read-out: IC50 A2780/RCIS. As for the experimental part: (§1) The MTT assay was done by seeding 5.0×10^3 human cancer cells or normal cells per well in 96-well plates ([34]-[36]). Following overnight incubation of the cells in 5% CO2 at 37 °C, culture medium of each well was exchanged with medium having reference anti-cancer agent CA-4 as well as different concentrations of synthesized compounds and RPMI (no drug) negative control and cells were incubated 48 hr. Then MTT solution (25 μl, 4 mg ml ^-1) was added to each well and the cells were incubated at 37 °C (for 3 hr). Finally, formazan crystals were dissolved in DMSO (100 μl) and plates were read in a plate reader (Synergy H4, USA) at 540 nm. The cytotoxic activity of the synthesized compounds was evaluated against different human cancer cell lines including […]-7 and MCF-7/MX, and normal cells by MTT assay. Combretastatin A-4 (CA-4) was used as the positive control.
A general note: Tetrazolium dyes change colour on reduction, which living cells bring about.

The test system of a further assay is A2780. Put plainly: MTT antiproliferative activity assay. Format: cell-based. As to conditions: Homo sapiens, 48 hr. How it is done: as §1
The next assay has as its system MCF-7/MX. The assay is described as follows: MTT antiproliferative activity assay. Format: cell-based. As to conditions: Homo sapiens, MCF7/MX; MTT, 48 hr; read-out: IC50 MCF-7/MX. As for the experimental part: as §1
The test system of another assay is MCF-7. Put plainly: MTT antiproliferative activity assay. Format: cell-based. As to conditions: Homo sapiens, MCF7, 48 hr. As for the experimental part:
as §1

The test system of another assay is HUVEC. Put plainly: MTT assay on normal cells. Format: cell-based. As to conditions: Homo sapiens, 48 hr. As for the experimental part:
as §1

Assay [1] deals with A2780, A2780/RCIS, MCF-7 and MCF-7/MX. The assay is described as follows: MTT assay, statements over all four cancer cell lines. The format is cell-based. The settings on record: Homo sapiens, range over four cell lines, read-out: IC50 values range against all four human cancer cells. How it is done:
as §1

Another assay deals with T1, tubulin (Sus scrofa, UniProt P02550+P02554).
T1 construct: purchased cytoskeleton BK011P
Put plainly: In vitro tubulin polymerization assay (fluorescence kit). Format: biochemical. The settings on record: compound 20 µM; CA-4 5 µM. How it is done: A commercial kit (cytoskeleton, cat. #BK011P) was used to evaluate the tubulin polymerization inhibition activity of compounds ([37]). Briefly, tubulin protein was added to tubulin buffer (80 mM PIPES, 2 mM MgCl2, 0.5 mM EGTA, 1 mM GTP, […], PH 6.9) and the acquired mixture was added to wells of a 96-well plate comprising the cytotoxic compounds or vehicle. Tubulin polymerization was observed by detecting the fluorescence augmentation due to the addition of a fluorescence reporter into microtubules as polymerization occurred. Polymerization was measured by excitation at 360 nm and emission at 420 nm for 1 hr at 1 min intervals in a plate reader (Synergy H4, USA). CA-4 (5 μM) and paclitaxel (3 μM) were used as positive destabilizing and positive stabilizing controls, respectively.
In order to check if the cytotoxic activity of our quinolines was correlated to their ability to inhibit tubulin, compounds 7e and 7f and CA4 (polymerization suppressor) and paclitaxel (polymerization promoter) were assessed for their activity in a microtubule polymerization assay.

The test system of another assay is A2780 cancer cells. Put plainly: Cell cycle analysis by flow cytometry (PI). The format is cell-based, human. As to conditions: 48 hr. From the text: (§2) Flow cytometry with propidium iodide (PI) was used to analyze the cell numbers in the cell cycle phases. […] Flowjo software 7.6 was used to analyze the data regarding the cell numbers in different phases of the cell cycle.
(§3) Tubulin inhibitors arrest cell cycle at the G2/M phase in cancer cells owing to destruction of the microtubular cytoskeleton. To get more understanding of the mechanism of action, the effects of compounds 7f and 7e on the cell cycle were examined by ﬂow cytometry in four human cancer cell lines (MCF-7, MCF-7/MX, A2780, and A2780/RCIS). […] When A2780 cancer cells were treated with 7f and 7e for 48 hr, the percentage of cells in the G2/M phase was 15.70% (7f, 1 μM), 17.74% (7f, 10 μM), 23.30% (7e, 5μM), and 4.15% (7e, 15μM) compared with the negative control (4.84%). Moreover, the percentage of A2780 cancer cells in the subG1 phase was 18.58% (7f, 10 μM) and 68.16% (7e, 15 μM).
For orientation: Flow cytometry measures light scatter and fluorescence of single cells or particles in a stream.

A further assay relates to A2780/RCIS cancer cells. Put plainly: Cell cycle analysis by flow cytometry (PI). Format: cell-based, human. The settings on record: 48 hr.
Source text: as §2, §3

For a further assay, the system named is MCF-7 cancer cells. The assay is described as follows: Cell cycle analysis by flow cytometry (PI). The format is cell-based, human. The settings on record: 48 hr.
Source text: as §2, §3

The test system of another assay is MCF-7/MX cancer cells. Put plainly: Cell cycle analysis by flow cytometry (PI). Format: cell-based, human. The settings on record: 48 hr.
Source text: as §2, §3

A further assay deals with A2780 cells. Put plainly: Apoptosis assay (Annexin V/PI staining). Format: cell-based, human. As to conditions: 24 hr. As for the experimental part: A2780 cells ([…]) were seeded in six-well plates and incubated overnight. Then the medium was replaced with a complete medium containing compound 7e (3 and 15 µM concentrations). After 24 hr incubation, the cells were […] and washed with PBS and incubated with buffer including 10 mM HEPES, 140 mM NaCl, and 2.5 mM CaCl2 (pH 7.4) and also PI and annexin V-FITC at room temperature (20 min) ([38]). The samples were analyzed using a flow cytometer (Beckman Coulter), and the results were assessed using the Flowjo software.
Then, to investigate the mode of cell death caused by 7e, flow cytometry was done using propidium iodide (PI) ([19]), which only colors DNA and only enter dead cells, and Annexin-V (the fluorescence probe), which binds to the early apoptotic cells selectively ([20]).

T1 sequence (P02550 whole entry): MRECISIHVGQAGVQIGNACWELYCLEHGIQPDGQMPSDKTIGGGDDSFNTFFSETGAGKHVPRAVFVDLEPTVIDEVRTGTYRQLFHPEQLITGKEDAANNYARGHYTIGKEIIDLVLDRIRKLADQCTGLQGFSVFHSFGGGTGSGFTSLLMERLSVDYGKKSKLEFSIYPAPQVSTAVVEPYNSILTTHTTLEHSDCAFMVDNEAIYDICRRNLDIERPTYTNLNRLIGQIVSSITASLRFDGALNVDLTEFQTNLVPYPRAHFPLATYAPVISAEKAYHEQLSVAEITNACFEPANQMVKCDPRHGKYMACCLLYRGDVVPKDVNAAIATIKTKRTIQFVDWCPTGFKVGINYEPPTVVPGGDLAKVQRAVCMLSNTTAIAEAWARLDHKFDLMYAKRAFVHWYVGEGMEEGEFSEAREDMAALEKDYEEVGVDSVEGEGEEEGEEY
T1 sequence (P02554 whole entry): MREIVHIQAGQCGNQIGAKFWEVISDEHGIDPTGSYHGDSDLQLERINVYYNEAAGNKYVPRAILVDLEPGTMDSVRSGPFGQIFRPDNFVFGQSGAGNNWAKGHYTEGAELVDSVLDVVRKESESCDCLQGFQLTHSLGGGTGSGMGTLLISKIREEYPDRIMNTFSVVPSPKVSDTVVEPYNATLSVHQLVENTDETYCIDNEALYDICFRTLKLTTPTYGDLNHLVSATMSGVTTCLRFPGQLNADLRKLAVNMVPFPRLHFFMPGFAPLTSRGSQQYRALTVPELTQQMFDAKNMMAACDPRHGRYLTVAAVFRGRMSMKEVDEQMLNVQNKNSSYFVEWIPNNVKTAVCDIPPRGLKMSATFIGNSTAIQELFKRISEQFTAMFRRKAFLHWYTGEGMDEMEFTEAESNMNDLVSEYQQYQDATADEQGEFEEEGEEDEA

On to `COc1cc2nc(C)cc(Nc3ccc(C(=O)c4ccccc4)cc3)c2c(OC)c1OC` [Compound 7e], for which the IC50 is 6.66 ± 1.35 µM with A2780/RCIS; 11.3 ± 1.47 µM in the assay with A2780; 10.9 ± 1.28 µM with MCF-7/MX; 33 ± 2.51 µM in the assay on MCF-7; greater than 100 µM in the assay on HUVEC; 5.02 to 35.8 µM in [1]. Moreover, at tubulin, the “tubulin polymerization inhibition” value is given as “inhibited tubulin polymerization in a way similar to that of CA-4”. Moreover, the G2/M worked out at 23.30% in the assay on A2780 cancer cells (A2780, 5 μM); 4.15% in the assay with A2780 cancer cells (A2780, 15 μM); 24.91% in the assay on A2780/RCIS cancer cells (1 μM); 25.93% in the assay with A2780/RCIS cancer cells (5 μM); 25.91% with MCF-7 cancer cells (MCF-7, 20 μM); 34.45% in the assay on MCF-7 cancer cells (MCF-7, 30 μM). The G2/M worked out at 25.41% in the assay on MCF-7/MX cancer cells (1 μM) and 37.85% in the assay with MCF-7/MX cancer cells (10 μM). In addition, the SubG1 with A2780 cancer cells (A2780, 15 μM) is recorded as 68.16%. Besides, the “total apoptotic cells including early and late apoptotic cells” value in the assay with A2780 cells (A2780, 3 µM) stood at 8.02%; with A2780 cells (A2780, 15 µM), 28.57%.
